Earlier results as cited in US9084671B2, “Methods of forming a micronized peptide coated stent” (ABBOTT CARDIOVASCULAR SYSTEMS INC., priority 2002, dated 2015).

Conditions: stated as a property of the highly cationic guanidinium peptide; no method given

heptaarginine [heptamer of L-arginine]
pKa: 13.2
